The text below walks through data of patent publication US5883243A, “Non-reducing saccharides, their preparations and uses” (Kabushiki Kaisha Hayashibara Seibutsu Kagaku Kenkyujo, priority 1997, dated 1999).

In experiment [1] the test system is Bifidobacterium adolescentis JCM 1275. The experiment is described as follows: Assimilation test by intestinal microorganism. It is filed as cell-based. The following applies: 0.5 w/v % saccharide in PYF broth, 37° C., 96 hours.
In experiment [2] the test system is Bifidobacterium animalis JCM 1190. The experiment is described as follows: Assimilation test by intestinal microorganism. The following applies: 0.5 w/v % saccharide in PYF broth, 37° C., 96 hours. It is filed as cell-based.
The subject of experiment [3] is Bifidobacterium bifidum JCM 1255. The experiment is described as follows: Assimilation test by intestinal microorganism. The class given is cell-based. The conditions noted are these: 0.5 w/v % saccharide in PYF broth, 37° C., 96 hours.
Experiment [4] relates to Bifidobacterium breve JCM 1192. The experiment is described as follows: Assimilation test by intestinal microorganism. It is filed as cell-based. The following applies: 0.5 w/v % saccharide in PYF broth, 37° C., 96 hours.
Experiment [5] deals with Bifidobacterium infantis JCM 1222. Briefly: Assimilation test by intestinal microorganism. The class given is cell-based. The following applies: 0.5 w/v % saccharide in PYF broth, 37° C., 96 hours.
Experiment [6] deals with Bifidobacterium longum JCM 1217. The experiment is described as follows: Assimilation test by intestinal microorganism. The class given is cell-based. The conditions noted are these: 0.5 w/v % saccharide in PYF broth, 37° C., 96 hours.
Experiment [7] relates to Lactobacillus fermentum IFO 3959. The experiment is described as follows: Assimilation test by intestinal microorganism. The following applies: 0.5 w/v % saccharide in PYF broth, 37° C., 96 hours. It is filed as cell-based.
The subject of experiment [8] is Lactobacillus plantarum IFO 3070. The experiment is described as follows: Assimilation test by intestinal microorganism. The class given is cell-based. The conditions noted are these: 0.5 w/v % saccharide in PYF broth, 37° C., 96 hours.
In experiment [9] the test system is Eubacterium aerofaciens ATCC 25986. The experiment is described as follows: Assimilation test by intestinal microorganism. It is filed as cell-based. The conditions noted are these: 0.5 w/v % saccharide in PYF broth, 37° C., 96 hours.
The test system of experiment [10] is Bacteroides distasonis JCM 5825. Briefly: Assimilation test by intestinal microorganism. The following applies: 0.5 w/v % saccharide in PYF broth, 37° C., 96 hours. The class given is cell-based.
For experiment [11], the system named is Bacteroides vulgatus JCM 5826. Briefly: Assimilation test by intestinal microorganism. The class given is cell-based. The following applies: 0.5 w/v % saccharide in PYF broth, 37° C., 96 hours.
In experiment [12] the test system is Bacteroides uniformis JCM 5828. The experiment is described as follows: Assimilation test by intestinal microorganism. The class given is cell-based. The following applies: 0.5 w/v % saccharide in PYF broth, 37° C., 96 hours.
Experiment [13] relates to Clostridium perfringens JCM 3816. It is filed as cell-based. The following applies: 0.5 w/v % saccharide in PYF broth, 37° C., 96 hours.
Experiment [14] concerns Clostridium ramosum JCM 1298. Briefly: Assimilation test by intestinal microorganism. The class given is cell-based. The following applies: 0.5 w/v % saccharide in PYF broth, 37° C., 96 hours.
For experiment [15], the system named is Clostridium sporogenes JCM 1416. The experiment is described as follows: Assimilation test by intestinal microorganism. The class given is cell-based. The following applies: 0.5 w/v % saccharide in PYF broth, 37° C., 96 hours, free of sugar: ±. How it is done: To evaluate the growth rate of and to judge the assimilability by the microorganisms, the resultant broth was diluted 5-fold, and the turbidity of the dilution was measured at a wavelength of 750 nm in a 1-cm light-path cell. […] The criteria were in Table 3, and the results were in Tables 4 and 5: […]

Experiment [16] concerns Streptococcus faecalis IAM 10065. The experiment is described as follows: Assimilation test by intestinal microorganism. It is filed as cell-based. The conditions noted are these: 0.5 w/v % saccharide in PYF broth, 37° C., 96 hours.
The subject of experiment [17] is Peptostreptococcus prevotii ATCC 9321. The experiment is described as follows: Assimilation test by intestinal microorganism. The following applies: 0.5 w/v % saccharide in PYF broth, 37° C., 96 hours. The class given is cell-based.
The test system of experiment [18] is Escherichia coli IFO 3301. Briefly: Assimilation test by intestinal microorganism. The following applies: 0.5 w/v % saccharide in PYF broth, 37° C., 96 hours. The class given is cell-based.
Experiment [19] has as its system Streptococcus sobrinus ATCC 27351. Briefly: Acid formation by dental caries-inducing microorganisms. The conditions noted are these: living wet cells, 0.02M saccharide, Stephen buffer pH 7.0, 37° C.
For experiment [20], the system named is Clostridium butyricum JCM 1391. The class given is cell-based. The conditions noted are these: 0.5 w/v % saccharide in PYF broth, 37° C., 96 hours.

In the case of `OC[C@H]1O[C@H](OC[C@H]2OC(O)[C@H](O)[C@@H](O)[C@@H]2O)[C@H](O)[C@@H](O)[C@@H]1O` (stereo partly shown) [Isomaltose, isomaltose, reference compound], the “Judgement of assimilation (turbidity at a wavelength of 750 nm × 5)” value (“Judgement of assimilation” for short) in [1] is given as “+++ (0.3 or higher)”; in [2], “+++ (0.3 or higher)”; in [3], “+ (0.15 or higher but less than 0.2)”; in experiment [4], “+++ (0.3 or higher)”; in experiment [5], “+++ (0.3 or higher)”; in experiment [6], “++ (0.2 or higher but less than 0.3)”. Moreover, the “Judgement of assimilation” value is given as “- (Less than 0.1)” in [7]; “- (Less than 0.1)” in experiment [8]; “+ (0.15 or higher but less than 0.2)” in [9]; “+ (0.15 or higher but less than 0.2)” in [10]; “- (Less than 0.1)” in experiment [11]; “- (Less than 0.1)” in experiment [12]. The “Judgement of assimilation” value is given as “± (0.1 or higher but less than 0.15)” in experiment [13]; “- (Less than 0.1)” in [14]; “± (0.1 or higher but less than 0.15)” in experiment [15]; “+ (0.15 or higher but less than 0.2)” in [16]; “- (Less than 0.1)” in [17]; “- (Less than 0.1)” in [18]. The “pH at each fermentation time (min): 0” value in [19] (0 min) amounted to 7.0. In addition, the “pH at each fermentation time (min): 5” value in experiment [19] (5 min) came to 7.0. In experiment [19] (15 min), the “pH at each fermentation time (min): 15” value turned out to be 6.9. Further, the “pH at each fermentation time (min): 30” value in experiment [19] (30 min) was 6.9. Besides, the “pH at each fermentation time (min): 60” value in experiment [19] (60 min) amounted to 6.8. In experiment [19] (90 min), the “pH at each fermentation time (min): 90” value was 6.7.
`O=C[C@H](O)[C@@H](O)[C@H](O)[C@H](O)CO` [A, glucose, reference compound]: the “Judgement of assimilation” value in experiment [1] is “+++ (0.3 or higher)”; in experiment [2], “+++ (0.3 or higher)”; in experiment [3], “++ (0.2 or higher but less than 0.3)”; in [4], “++ (0.2 or higher but less than 0.3)”; in experiment [5], “++ (0.2 or higher but less than 0.3)”; in [6] it was “+++ (0.3 or higher)”. Besides, the “Judgement of assimilation” value in [7] was “++ (0.2 or higher but less than 0.3)”; in experiment [8], “++ (0.2 or higher but less than 0.3)”; in experiment [9], “+++ (0.3 or higher)”; in [10], “++ (0.2 or higher but less than 0.3)”; in [11], “+ (0.15 or higher but less than 0.2)”; in experiment [12], “++ (0.2 or higher but less than 0.3)”. For the same molecule, the “Judgement of assimilation” value in [20] is recorded as “+++ (0.3 or higher)”; in experiment [13], “+++ (0.3 or higher)”; in experiment [14], “+ (0.15 or higher but less than 0.2)”; in [15], “+ (0.15 or higher but less than 0.2)”; in experiment [16] it was “++ (0.2 or higher but less than 0.3)”; in experiment [17] it was “+ (0.15 or higher but less than 0.2)”. The “Judgement of assimilation” value in experiment [18] is on record as “+ (0.15 or higher but less than 0.2)”.
